According to ChEMBL document CHEMBL4477230, “Cytotoxic effect of levoglucosenone and related derivatives against human hepatocarcinoma cell lines” (Bioorg Med Chem Lett, 2016):

Assays:
Assay type in all cases: functional, cell-based; call rule not given here
Huh-7 [1] = assay: Cytotoxicity against human HuH7 cells assessed as reduction in cell growth after 48 hrs by MTT assay
HepG2 [2] = assay: Cytotoxicity against human HepG2 cells assessed as reduction in cell growth after 48 hrs by MTT assay
Huh-7 [3] = assay: Cytotoxicity against human HuH7 cells assessed as reduction in cell growth after 48 hrs by MTS assay; conditions: Huh-7, 48 h
HepG2 [4] = assay: Cytotoxicity against human HepG2 cells assessed as reduction in cell growth after 48 hrs by MTS assay; conditions: HepG2, 48 h
[5] = Homo sapiens, Huh-7, 48 h, read-out: IC50
[6] = Homo sapiens, HepG2, 48 h, read-out: IC50

| Structure (SMILES) | IC50 (Huh-7 [1]; [5]) [µM] | IC50 (HepG2 [2]; [6]) [µM] | IC50 (Huh-7 [1]; huh-7) | IC50 (HepG2 [2]; hepg2) | further results |
| --- | --- | --- | --- | --- | --- |
| O=C1C=C[C@H]2CO[C@@H]1O2 | 12.9 | 39.4 |  |  |  |
| CCCCCCS[C@H]1CC(=O)[C@@H]2OC[C@H]1O2 |  |  | Not Active | Not Active |  |
| Cc1ccc(S[C@H]2CC(=O)[C@@H]3OC[C@H]2O3)cc1 | 12.8 | 27.5 |  |  |  |
| O=C1C[C@H](n2c(=O)oc3ccccc32)[C@H]2CO[C@@H]1O2 | 8.79 | 22.2 |  |  |  |
| O=C1C(Br)=C[C@H]2CO[C@@H]1O2 | 4.68 | 14 |  |  |  |
| CCCCS[C@H]1CC(=O)[C@@H]2OC[C@H]1O2 |  |  | Not Active | Not Active |  |
| Cc1ccc(S[C@H]2CC(O)[C@@H]3OC[C@H]2O3)cc1 (some centres undefined) |  |  | Not Active | Not Active |  |
| CCCCS[C@H]1CC(O)[C@@H]2OC[C@H]1O2 (some centres undefined) |  |  | Not Active | Not Active |  |
| O=C1C[C@H](Sc2ccccc2)[C@H]2CO[C@@H]1O2 | 11 | 17 |  |  |  |
| COc1cccc2c1C(=O)c1c(O)c3c(c(O)c1C2=O)C[C@@](O)(C(=O)CO)C[C@@H]3O[C@H]1C[C@H](N)[C@H](O)[C@H](C)O1 [DOXORUBICIN] | 0.24 | 0.68 |  |  |  |
| O=c1[nH]cc(F)c(=O)[nH]1 [FLUOROURACIL] | 390 | 205 |  |  |  |
| CNC(=O)c1cc(Oc2ccc(NC(=O)Nc3ccc(Cl)c(C(F)(F)F)c3)cc2)ccn1 [SORAFENIB] |  |  |  |  | IC50 (Huh-7 [3]): 11.3 µM; IC50 (HepG2 [4]): 12 µM |
